Data on one substance can be found in patent publication US20090324624A1, “Chitin micro-particles as an adjuvant” (priority 2006, published 2009).

Format in all cases: cell-based, mouse
In one assay the test system is IL-10 mRNA. Put plainly: IL-10 mRNA expression in RAW264.7 MØ (RT-PCR).
Another assay relates to F4/80. Put plainly: Surface expression of MØ antigens, cytometry: F4/80. As to conditions: 5 mM MBCD, 1 hr at 37°.
The next assay deals with Mac-1.
Assay [1] relates to Fcγ receptor II/III (FcγR). Briefly: Surface expression of MØ antigens, cytometry: FcγR. As to conditions: 5 mM MBCD, 1 hr at 37°. The procedure:
For evaluation of phagocytosis, MØ were incubated with 100 μg/ml FITC-chitin particles at 37° C. for 20 or 40 min. Fluorescence of unphagocytosed FITC-chitin was quenched with 50 mM acetate-buffered saline (pH 4.5) containing 2 mg/ml trypan blue, and the fluorescence intensity of MØ with intracellular FITC-chitin particles was measured cytometrically. The presence of intracellular FITC-chitin particles was further confirmed by fluorescence microscopy (Provis AX70 Microscope with MagnaFire, Olympus, Center Valley, Pa.). Expression of F4/80, Mac-1, FcγR, SR-A, TLR4, or MR on MØ was determined cytometrically.
The effect of cholesterol depletion on expression of the selected MØ surface antigens F4/80, Mac-1, FcγR, SR-A, TLR4, and MR was determined. […] The expression of TLR4 and MR were not altered by MBCD. The values for mean fluorescence intensity were consistent with the effects of MBCD on the expression of MØ antigens (Table 3). Therefore, MBCD at 5 mM or less was used for further experiments. All studies of chitin stimulation in the presence of MBCD were terminated within 6 h.

In assay [2] the test system is scavenger receptor A (SR-A). Put plainly: Surface expression of MØ antigens, cytometry: SR-A. As to conditions: 5 mM MBCD, 1 hr at 37°.
In assay [3] the test system is Toll-like receptor 4 (TLR4). Briefly: Surface expression of MØ antigens, cytometry: TLR4. As to conditions: 5 mM MBCD, 1 hr at 37°; 2nd antibody control 7.0.
A further assay deals with mannose receptor (MR). Briefly: Surface expression of MØ antigens, cytometry: MR. As to conditions: 5 mM MBCD, 1 hr at 37°; 2nd antibody control 7.0.
The test system of assay [4] is RAW 264.7 MØ. Briefly: Cell-surface binding of FITC-chitin particles. As to conditions: MBCD-treated vs saline-treated MØ. The procedure:
For chitin binding and phagocytosis assays, 1-10 μm chitin particles were labeled with fluorescein isothiocyanate (FITC). Particles (10 mg) and FITC (0.1 mg) were mixed and incubated in 0.1 M NaHCO3 at 22° C. for 2 h. Glycine (final 1 M) was added to bind free FITC, after which labeled particles were washed and suspended in saline at 10 mg/ml. To assess cell-surface binding of chitin, MØ were incubated with 100 μg/ml FITC-chitin particles on ice for 30 min. Free particles were removed by washing three times, and cellular fluorescence was measured cytometrically (BD FACSCalibur system with CELL Quest™ acquisition plus analysis program; Becton-Dickinson Immunocytometry Systems, San Jose, Calif.). To confirm that MØ binding to chitin particles was not altered by FITC, an excess of unlabeled particles (1,000 μg/ml) was used to compete with FITC-chitin.
It was also determined whether cholesterol depletion modifies MØ binding and internalization of FITC-chitin microparticles. […] Internalization of FITC-chitin particles at 37° C. was analyzed following quenching of unphagocytosed FITC-chitin. The magnitude of phagocytosis is similar for MBCD- and saline-treated MØ at 20 min: 12 and 12%, respectively.

The test system of assay [5] is RAW 264.7 MØ. Briefly: TNF-α production by MBCD- or saline-treated MØ (ELISA). Particulars: for increase in TNF-α production in response to chitin particles: 1 mM MBCD. A general note: In an ELISA, binding on a coated surface is turned into a signal by an enzyme label.
For another assay, the system named is COX-2. Put plainly: COX-2 expression and PGE2 release by MBCD- or saline-treated MØ.
The test system of assay [6] is chitin phagosome-associated p38 and ERK1/2. Briefly: Phagosomal (chitin particle-associated) MAPK phosphorylation. As to conditions: 10, 20 and 40 min. The protocol:
FIG. 14 is a series of photographs of gels showing Phagosomal localization of MAPK proteins. MBCD- and saline-treated MØ were stimulated with 100 μg/ml 1-10 μm chitin particles at 37° C. for 10, 20 or 40 min. Chitin particle-associated proteins were isolated and extracted as described in Example 3. Particle-associated proteins derived from 2×10^6 MØ as well as whole cell proteins were separated on SDS-11% polyacrylamide gel and electroblotted to PVDF membrane. The data shown are representative of two independent experiments.
MBCD- or saline-treated MØ (2×10^6/ml) were stimulated with 100 μg/ml 1-10 μm chitin particles at 37° C. for 10, 20, or 40 min, washed with saline, suspended in homogenization buffer (50 mM Tris-HCl, pH 7.5, 0.32 M sucrose, 10 mM NaF, 1 mM Na3VO4, 5 mM EDTA, 1:500 protease inhibitor cocktail [Sigma]), and homogenized by sonication (20 s). […] Total and phosphorylated p38 and ERK1/2 as well as lysosome-associated membrane protein-1 (LAMP-1) were detected by western blotting with specific antibodies as described above. […]
The extent of phosphorylation of MAPK associated with intracellular chitin particles in MBCD-treated and saline-treated MØ was determined. […] MAPKs p38 and ERK1/2 and the respective phosphorylated forms were detected in the particle-associated fractions at 10, 20 and 40 min (FIG. 14). […] Phosphorylated JNK was not detected in the particle-associated fraction.

Mac-1, sequence (P05555 17-1153): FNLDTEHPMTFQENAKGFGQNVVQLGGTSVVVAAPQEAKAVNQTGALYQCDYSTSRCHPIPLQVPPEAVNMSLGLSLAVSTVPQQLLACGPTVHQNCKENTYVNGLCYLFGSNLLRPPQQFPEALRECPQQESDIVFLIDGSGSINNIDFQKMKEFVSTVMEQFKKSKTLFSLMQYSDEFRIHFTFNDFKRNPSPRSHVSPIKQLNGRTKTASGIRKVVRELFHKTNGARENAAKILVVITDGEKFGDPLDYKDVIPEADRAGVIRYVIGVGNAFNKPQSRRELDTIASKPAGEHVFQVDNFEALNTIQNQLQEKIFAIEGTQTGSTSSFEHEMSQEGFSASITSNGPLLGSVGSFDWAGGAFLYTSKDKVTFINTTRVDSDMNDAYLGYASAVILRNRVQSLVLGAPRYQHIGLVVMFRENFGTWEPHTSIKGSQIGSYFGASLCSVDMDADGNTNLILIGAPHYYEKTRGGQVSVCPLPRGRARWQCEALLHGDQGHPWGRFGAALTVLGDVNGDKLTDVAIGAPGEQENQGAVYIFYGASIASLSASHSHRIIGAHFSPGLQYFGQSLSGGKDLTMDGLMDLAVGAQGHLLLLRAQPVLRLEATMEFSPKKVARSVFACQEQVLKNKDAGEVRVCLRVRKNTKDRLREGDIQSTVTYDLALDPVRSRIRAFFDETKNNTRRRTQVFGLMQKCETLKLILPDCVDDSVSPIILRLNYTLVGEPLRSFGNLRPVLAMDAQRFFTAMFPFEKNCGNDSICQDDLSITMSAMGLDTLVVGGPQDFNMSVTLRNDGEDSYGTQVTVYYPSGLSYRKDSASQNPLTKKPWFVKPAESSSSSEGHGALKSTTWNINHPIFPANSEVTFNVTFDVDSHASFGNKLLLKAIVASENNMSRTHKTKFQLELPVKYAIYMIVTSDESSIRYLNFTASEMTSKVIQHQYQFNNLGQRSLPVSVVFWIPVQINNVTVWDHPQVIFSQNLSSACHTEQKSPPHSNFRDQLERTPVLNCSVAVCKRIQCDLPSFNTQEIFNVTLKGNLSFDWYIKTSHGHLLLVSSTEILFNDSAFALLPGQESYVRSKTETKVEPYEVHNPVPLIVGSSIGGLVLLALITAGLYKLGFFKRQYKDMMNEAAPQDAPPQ

Consider methyl-β-cyclodextrin [MBCD], for which the “CpG-ODN-induced IL-10 mRNA after MBCD treatment” value in the assay with IL-10 mRNA is “not increased”. Besides, the “chitin particle-induced IL-10 mRNA expression after MBCD treatment” value with IL-10 mRNA (6 h) is listed as “did not result in IL-10 mRNA expression”. Besides, the “% positive cells in M1, F4/80” value in the assay on F4/80 is 69%. The “MFI, F4/80” value in the assay with F4/80 (2nd antibody control 7.0) is listed as 17. In the assay on Mac-1, the “% positive cells in M1, Mac-1” value is recorded as 81% and the “MFI, Mac-1” value was determined as 36. Besides, the “% positive cells in M1, FcγR” value in assay [1] was found to be 65%. In addition, the “MFI, FcγR” value in [1] (2nd antibody control 7.0) turned out to be 14. Besides, the “% positive cells in M1, SR-A” value in [2] is 81%. The “MFI, SR-A” value in assay [2] (2nd antibody control 7.0) was found to be 32. Moreover, the “MFI, TLR4” value in assay [3] is 23. Besides, in the assay with mannose receptor (MR), the “MFI, MR” value is on record as 73. In addition, the “effect of MBCD treatment on MØ binding to FITC-chitin particles” value in the assay with RAW 264.7 MØ [4] was “not significantly altered”. Moreover, the “increase in TNF-α production in response to chitin particles” value with RAW 264.7 MØ [5] (20 μg/ml chitin particles) is 3 fold. Further, the “increase in TNF-α production in response to chitin particles” value in the assay with RAW 264.7 MØ [5] (100 μg/ml chitin particles) was 1.8 fold. The “TNF-α production, MBCD alone” value in the assay on RAW 264.7 MØ [5] (5 mM MBCD) is “enhanced slightly but significantly”. Moreover, in the assay with COX-2 (1 mM MBCD), the “CpG-ODN-induced COX-2 expression or PGE2 release” value is listed as “did not enhance”. In the assay on COX-2 (5 mM MBCD), the “COX-2 expression, MBCD alone” value is reported as “induced” and the “PGE2 release vs MØ treated with saline” value was “not different”. For the same substance, the “relative amounts of chitin-associated phosphorylated MAPK, MBCD- vs saline-treated cells (FIG. 14)” value in assay [6] was “greater”.
